Test results reported in ChEMBL document CHEMBL1138945, “Development of N-4,6-pyrimidine-N-alkyl-N'-phenyl ureas as orally active inhibitors of lymphocyte specific tyrosine kinase” (Bioorg Med Chem Lett, 2006).
Values after ≈ are worked out from the molar mass of the structure shown.

Tests used:
[1] = biological target: Tyrosine-protein kinase Lck (Homo sapiens, UniProt P06239); assay: Inhibition of Lck
[2] = Intrinsic clearance in rat hepatocytes after 1 hr at 1 uM; assay type: ADME, cell-based, Liver, Hepatocyte
[3] = Oral bioavailability in rat; assay type: ADME, organism-based; settings: in vivo
[4] = system: Jurkat; assay: Inhibition of IL2 production in Jurkat E6-1 T cell line; assay type: functional, cell-based; settings: Homo sapiens
[5] = Aqueous solubility of the compound; assay type: physicochemical; settings: buffer
[6] = Cmax in orally dosed rat; assay type: ADME, organism-based; set-up: route oral; settings: in vivo, po
[7] = system: Rattus norvegicus; assay: Inhibition of adjuvant-induced hind paw swelling in Lewis rat at 25 mg/kg, po after 7 days relative to control; assay type: functional; settings: 168 h

Sequence of Tyrosine-protein kinase Lck (P06239 whole entry): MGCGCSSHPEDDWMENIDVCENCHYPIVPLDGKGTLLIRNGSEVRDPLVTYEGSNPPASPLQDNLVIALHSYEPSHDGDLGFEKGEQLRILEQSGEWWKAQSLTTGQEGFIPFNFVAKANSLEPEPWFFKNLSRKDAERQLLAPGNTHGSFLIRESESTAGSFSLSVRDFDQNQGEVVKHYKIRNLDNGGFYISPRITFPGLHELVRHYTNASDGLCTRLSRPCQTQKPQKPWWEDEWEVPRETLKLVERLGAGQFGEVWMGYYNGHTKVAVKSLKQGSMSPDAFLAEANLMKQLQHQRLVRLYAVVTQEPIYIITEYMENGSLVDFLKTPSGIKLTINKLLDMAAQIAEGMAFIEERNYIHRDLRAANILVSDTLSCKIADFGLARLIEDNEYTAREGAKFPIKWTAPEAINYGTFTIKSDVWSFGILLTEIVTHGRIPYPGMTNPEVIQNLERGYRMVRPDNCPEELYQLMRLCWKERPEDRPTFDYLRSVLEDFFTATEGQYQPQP

Row | Compound | IC50 [1] [nM] | other results
1 | CN(C)CCCN(C(=O)Nc1c(Cl)cccc1Cl)c1cc(Nc2ccc(N3CCOCC3)cc2)ncn1 | 155 | 
2 | CCN(CC)c1ccc(Nc2cc(N(C)C(=O)Nc3ccccc3Cl)ncn2)cc1 | 3130 | 
3 | CN(C(=O)Nc1ccccc1Cl)c1cc(Nc2ccc(F)cc2)ncn1 | 1820 | 
4 | CN(C)CCCNc1cc(N(C)C(=O)Nc2c(Cl)cccc2Cl)ncn1 | 5990 | 
5 | O=C(Nc1c(Cl)cccc1Cl)N(c1ccncc1)c1cc(Nc2ccc(N3CCOCC3)cc2)ncn1 | > 10000 | 
6 | Cc1cccc(Cl)c1NC(=O)N(C)c1cc(Nc2ccc(N3CCOCC3)cc2)ncn1 | 190 | 
7 | CN(C(=O)Nc1ccccc1Cl)c1cc(Nc2ccc(N3CCOCC3)cc2)ncn1 | 4290 | 
8 | CN(C(=O)Nc1c(Cl)cccc1Cl)c1cc(Nc2ccc(F)cc2)ncn1 | 3860 | 
9 | CCN(CC)CCNc1cc(N(C)C(=O)Nc2c(Cl)cccc2Cl)ncn1 | > 10000 | 
10 | CN(C(=O)Nc1c(Cl)cccc1Cl)c1cc(NC2CCOCC2)ncn1 | > 10000 | 
11 | Cc1cccc(Cl)c1NC(=O)N(C)c1cc(Nc2ccc(N3CCN(C)CC3)cc2)ncn1 | 9 | IC50 [4]: 749 nM; solubility [5]: 2 µg/mL (≈ 4.29 µM)
12 | CCN(CC)c1ccc(Nc2cc(N(CCCN(C)C)C(=O)Nc3ccccc3Cl)ncn2)cc1 | 4490 | 
13 | CN1CCN(c2ccc(Nc3cc(N(C)C(=O)Nc4ccccc4Cl)ncn3)cc2)CC1 | 708 | 
14 | CN1CCN(c2ccc(Nc3cc(N(C)C(=O)Nc4c(Cl)cccc4Cl)ncn3)cc2)CC1 | 6 | 
15 | CCN(CC)c1ccc(Nc2cc(N(CCCN(C)C)C(=O)Nc3c(C)cccc3Cl)ncn2)cc1 | 971 | 
16 | CNc1cc(N(CCCN(C)C)C(=O)Nc2c(Cl)cccc2Cl)ncn1 | 2350 | 
17 | CN1CCN(N(C(=O)Nc2c(Cl)cccc2Cl)c2cc(Nc3ccc(N4CCOCC4)cc3)ncn2)CC1 | 230 | 
18 | CN(C(=O)Nc1c(Cl)cccc1Cl)c1cc(Nc2ccc(N3CCOCC3)cc2)ncn1 | 301 | CLint scaled at 1 µM [2]: 48 mL/min/kg; bioavailability [3]: 0%; IC50 [4]: 2900 nM; solubility [5]: 3 µg/mL (≈ 6.34 µM); Cmax [6]: 9 ng/mL
19 | CN(C(=O)Nc1c(Cl)cccc1Cl)c1cc(NCCN2CCOCC2)ncn1 | > 10000 | 
20 | CCN(CC)c1ccc(Nc2cc(N(Cc3ccccc3)C(=O)Nc3ccccc3Cl)ncn2)cc1 | > 10000 | 
21 | Cc1ccc(O)cc1NC(=O)N(C)c1cc(Nc2ccc(N3CCOCC3)cc2)ncn1 | 4 | 
22 | Cc1cccc(Cl)c1NC(=O)N(Cc1ccccc1)c1cc(Nc2ccc(F)cc2)ncn1 | 1450 | 
23 | CCN(CC)c1ccc(Nc2cc(N(Cc3ccc(N(C)C)cc3)C(=O)Nc3ccccc3Cl)ncn2)cc1 | > 10000 | 

More lines, main results first:

Row | IC50 [1] [nM] | Compound | other results
24 | 3 | CCN(CC)CCOc1ccc(Nc2cc(N(C)C(=O)Nc3cc(O)ccc3C)ncn2)cc1 | CLint scaled at 1 µM [2]: 108 mL/min/kg; bioavailability [3]: 1%; IC50 [4]: 64 nM; solubility [5]: 41 µg/mL (≈ 88.3 µM); Cmax [6]: 3 ng/mL
25 | > 10000 | CCN(CC)CCOc1ccc(Nc2cc(N(C)C(=O)Nc3ccccc3OC)ncn2)cc1 | 
26 | 32 | CCN(CC)CCOc1ccc(Nc2cc(N(C)C(=O)Nc3cc(C(=O)Nc4cccc(C(F)(F)F)c4)ccc3C)ncn2)cc1 | 
27 | 149 | CCN(CC)CCOc1ccc(Nc2cc(N(C)C(=O)Nc3cc(NC(=O)c4cc5ccccc5n4C)ccc3C)ncn2)cc1 | 
28 | 28 | CCN(CC)CCOc1ccc(Nc2cc(N(C)C(=O)Nc3c(C)cccc3Cl)ncn2)cc1 | CLint scaled at 1 µM [2]: 25 mL/min/kg; IC50 [4]: 3100 nM; solubility [5]: 34 µg/mL (≈ 70.4 µM)
29 | 96 | CCN(CC)CCOc1ccc(Nc2cc(N(C)C(=O)Nc3c(Cl)cccc3C(F)(F)F)ncn2)cc1 | 
30 | 87 | CCN(CC)CCOc1ccc(Nc2cc(N(C)C(=O)Nc3c(Cl)cccc3Cl)ncn2)cc1 | CLint scaled at 1 µM [2]: 40 mL/min/kg; bioavailability [3]: 66%; IC50 [4]: 862 nM; inhibition in vivo at 25 mg/kg [7]: 63%; solubility [5]: 38 µg/mL (≈ 75.5 µM); Cmax [6]: 394 ng/mL
31 | 229 | CCN(CC)CCOc1ccc(Nc2cc(N(CCCN(C)C)C(=O)Nc3c(Cl)cccc3Cl)ncn2)cc1 | 
32 | 2580 | CCN(CC)CCOc1ccc(Nc2cc(N(C)C(=O)Nc3cc(OC)ccc3C)ncn2)cc1 | 
33 | 418 | CCN(CC)CCOc1ccc(Nc2cc(N(C)C(=O)Nc3c(F)cccc3F)ncn2)cc1 | 
34 | 52 | CCN(CC)CCOc1ccc(Nc2cc(N(C)C(=O)Nc3cc(NC(=O)c4cc5ccccc5s4)ccc3C)ncn2)cc1 | 
35 | 3 | CCN(CC)CCOc1ccc(Nc2cc(N(C)C(=O)Nc3cc(NC(=O)c4cccc(C(F)(F)F)c4)ccc3C)ncn2)cc1 | IC50 [4]: < 10 nM; solubility [5]: 3 µg/mL (≈ 4.72 µM)
36 | 4 | CCN(CC)CCOc1ccc(Nc2cc(N(C)C(=O)Nc3cc(C(=O)Nc4cc(C(C)(C)C)on4)ccc3C)ncn2)cc1 | IC50 [4]: < 10 nM; solubility [5]: 1 µg/mL (≈ 1.63 µM)
37 | > 10000 | CCN(CC)CCOc1ccc(N(C(=O)Nc2c(Cl)cccc2Cl)c2cc(NC)ncn2)cc1 | 
